# Counter-ions that a name gives are not always drawn.
# Experiments:
# [1] = tested on: NCI-H292 lung cancer cells; test: FDA drug screening, complete media vs cholesterol-free media with simvastatin (TABLE 2); type: cell-based, human; details: for Cholesterol-free media + simvastatin (0.04 μM) / Complete Media: NCI-H292 cells
# [2] = tested on: NCI-H292 lung cancer cells; test: FDA drug screening, complete media vs cholesterol-free media without statin (TABLE 1); type: cell-based, human
# [3] = cholesterol-free media with simvastatin 0.04 μM, FDA drug library screen (TABLE 2)
# [4] = complete media, FDA drug library screen (TABLE 2)
# [5] = complete media minus cholesterol-free media + simvastatin (0.04 μM), >0 enhanced anti-cancer activity, about 0 neutral, <0 antagonist
# [6] = Complete minus Cholesterol-free, >0 enhanced anti-cancer activity, about 0 neutral, <0 antagonist
# [7] = NCI-H292 cells, cholesterol-free media without statin, FDA drug library screen
# [8] = NCI-H292 cells, complete media, FDA drug library screen
# [9] = NCI-H292 cells, cholesterol-free media without statin
# [10] = complete vs cholesterol-free media, greater than 0 enhanced anti-cancer activity, about 0 neutral, below 0 antagonists
# [11] = FDA library drug in cholesterol-free media with simvastatin 0.04 μM
# [12] = FDA library drug in complete media
# [13] = complete media vs cholesterol-free media + simvastatin (0.04 μM), >0 enhanced anti-cancer activity, about 0 neutral, <0 antagonist
# [14] = drug in cholesterol-free media with simvastatin 0.04 μM
# [15] = Complete minus Cholesterol-free, greater than 0 enhanced anti-cancer activity, about 0 neutral, below 0 antagonist
# [16] = NCI-H292 cells, FDA drug library screen, cholesterol-free media without statin
# [17] = NCI-H292 cells, FDA drug library screen, complete media
# [18] = FDA drug library screen, cholesterol-free media with simvastatin 0.04 μM
# [19] = cholesterol-free media with simvastatin 0.04 μM, cell growth value in FDA drug screen
# [20] = complete media, cell growth value in FDA drug screen
# [21] = complete media minus cholesterol-free media + simvastatin, >0 enhanced anti-cancer activity, about 0 neutral, <0 antagonist
# [22] = FDA drug library screen, complete media
# [23] = Complete minus Cholesterol-free, greater than 0 enhanced anti-cancer activity, about 0 neutral, below 0 antagonists
# [24] = NCI-H292 cells in cholesterol-free media without statin
# [25] = NCI-H292 cells in complete media
# [26] = complete vs cholesterol-free media, >0 enhanced anti-cancer activity, about 0 neutral, <0 antagonist
structure (smiles),measurement,setting,value
Cc1cccc([C@H](C)c2cnc[nH]2)c1C [Dexmedetomidine (hydrochloride)],Cholesterol-free media + simvastatin (0.04 μM),[1]; [3],1.227
same,Complete Media,[1]; [4],1.157
same,Difference,[1]; [5],−0.07
same,Difference,[2]; [6],−0.05
same,Cholesterol-free,[2]; [7],0.9551
same,Complete,[2]; [8],0.9084
CCCN[C@@H]1CCc2nc(N)sc2C1 [Dexpramipexole (dihydrochloride)],Cholesterol-free media + simvastatin (0.04 μM),[1]; [3],1.099
same,Complete Media,[1]; [4],1.11
same,Difference,[1]; [5],0.01
same,Cholesterol-free,[2]; [9],0.9915
same,Complete,"[2]; NCI-H292 cells, complete media",0.5799
same,Difference,[2]; [10],−0.41
C[C@@H](CN1CC(=O)NC(=O)C1)N1CC(=O)NC(=O)C1 [Dexrazoxane (hydrochloride)],Cholesterol-free media + simvastatin (0.04 μM),[1]; [11],1.279
same,Complete Media,[1]; [12],1.002
same,Difference,[1]; [13],−0.28
same,Difference,[2]; [6],0.03
same,Cholesterol-free,[2]; [7],0.9516
same,Complete,[2]; [8],0.9799
CC(=O)Oc1cccc2c1C(=O)c1c(OC(C)=O)cc(C(=O)O)cc1C2=O [Diacerein],Cholesterol-free media + simvastatin (0.04 μM),[1]; [14],1.08
same,Complete Media,[1]; drug in complete media,0.9105
same,Difference,[1]; [13],−0.17
same,Difference,[2]; [15],−0.13
same,Cholesterol-free,[2]; [16],1.078
same,Complete,[2]; [17],0.9444
CC(=O)Nc1c(I)c(NC(C)=O)c(I)c(C(=O)O)c1I [Diatrizoic acid],Cholesterol-free media + simvastatin (0.04 μM),[1]; [18],1.834
same,Difference,[1]; [5],−1.00
same,Difference,[2]; [15],−0.07
same,Cholesterol-free,[2]; [16],1.077
same,Complete,[2]; [17],1.004
CC1=NS(=O)(=O)c2cc(Cl)ccc2N1 [Diazoxide],Cholesterol-free media + simvastatin (0.04 μM),[1]; [19],0.9722
same,Complete Media,[1]; [20],1.066
same,Difference,[1]; [21],0.09
same,Cholesterol-free,[2]; [9],1.261
same,Complete,"[2]; NCI-H292 cells, complete media",0.9038
same,Difference,[2]; [10],−0.36
CCCCOc1cc(C(=O)NCCN(CC)CC)c2ccccc2n1 [Dibucaine (hydrochloride)],Cholesterol-free media + simvastatin (0.04 μM),[1]; [18],0.7966
same,Complete Media,[1]; [22],1.391
same,Difference,[1]; [21],0.59
same,Difference,[2]; [23],−0.71
same,Cholesterol-free,[2]; [24],1.433
same,Complete,[2]; [25],0.7196
CCCCOc1cc(C(=O)NCCN(CC)CC)c2ccccc2n1 [Dibucaine],Cholesterol-free media + simvastatin (0.04 μM),[1]; [19],0.8438
same,Complete Media,[1]; [20],0.9323
same,Difference,[1]; [21],0.09
same,Difference,[2]; [23],−0.63
same,Cholesterol-free,[2]; [24],1.382
same,Complete,[2]; [25],0.749
CC(=O)OCC(=O)[C@@]1(O)CC[C@H]2[C@@H]3CCC4=CC(=O)C=C[C@]4(C)[C@@]3(Cl)[C@@H](Cl)C[C@@]21C [Dichlorisone acetate],Cholesterol-free media + simvastatin (0.04 μM),[1]; [3],0.7442
same,Complete Media,[1]; [4],0.6906
same,Difference,[1]; [5],−0.05
same,Cholesterol-free,[2]; [7],0.8532
same,Complete,[2]; [8],1.096
same,Difference,[2]; [26],0.24
NS(=O)(=O)c1cc(Cl)c(Cl)c(S(N)(=O)=O)c1 [Dichlorphenamide],Cholesterol-free media + simvastatin (0.04 μM),[1]; [3],1.117
same,Complete Media,[1]; [4],1.073
same,Difference,[1]; [5],−0.04
same,Difference,[2]; [15],−0.08
same,Cholesterol-free,[2]; [16],1.046
same,Complete,[2]; [17],0.9714
N#CC(c1ccc(Cl)cc1)c1c(Cl)cc(-n2ncc(=O)[nH]c2=O)cc1Cl (stereo not drawn) [Diclazuril],Cholesterol-free media + simvastatin (0.04 μM),[1]; [18],1.052
same,Complete Media,[1]; [22],0.9766
same,Difference,[1]; [13],−0.08
same,Cholesterol-free,[2]; [7],0.7362
same,Complete,[2]; [8],1.131
same,Difference,[2]; [26],0.39
O=C(O)Cc1ccccc1Nc1c(Cl)cccc1Cl [Diclofenac (Sodium)],Cholesterol-free media + simvastatin (0.04 μM),[1]; [11],1.356
same,Complete Media,[1]; [12],0.9075
same,Difference,[1]; [13],−0.45
same,Difference,[2]; [6],−0.23
same,Cholesterol-free,[2]; [9],1.086
same,Complete,"[2]; NCI-H292 cells, complete media",0.859
O=C(O)Cc1ccccc1Nc1c(Cl)cccc1Cl [Diclofenac (diethylamine)],Cholesterol-free media + simvastatin (0.04 μM),[1]; [3],0.9893
same,Complete Media,[1]; [4],0.9206
same,Difference,[1]; [5],−0.07
same,Cholesterol-free,[2]; [7],0.7838
same,Difference,[2]; [26],0.36
O=C(O)Cc1ccccc1Nc1c(Cl)cccc1Cl [Diclofenac (potassium)],Cholesterol-free media + simvastatin (0.04 μM),[1]; [3],1.093
same,Complete Media,[1]; [4],1.041
same,Difference,[1]; [5],−0.05
same,Difference,[2]; [6],−0.03
same,Cholesterol-free,[2]; [7],1.133
same,Complete,[2]; [8],1.107
O=C(O)Cc1ccccc1Nc1c(Cl)cccc1Cl [Diclofenac],Cholesterol-free media + simvastatin (0.04 μM),[1]; [11],1.089
same,Complete Media,[1]; [12],0.821
same,Difference,[1]; [13],−0.27
same,Difference,[2]; [6],−0.25
same,Cholesterol-free,[2]; [9],1.167
same,Complete,"[2]; NCI-H292 cells, complete media",0.917
Cc1onc(-c2c(Cl)cccc2Cl)c1C(=O)N[C@@H]1C(=O)N2[C@@H]1SC(C)(C)[C@@H]2C(=O)O [Dicloxacillin (Sodium hydrate)],Cholesterol-free media + simvastatin (0.04 μM),[1]; [18],1.145
same,Complete Media,[1]; [22],1.008
same,Difference,[1]; [13],−0.14
same,Difference,[2]; [6],0.01
same,Cholesterol-free,[2]; [7],0.8462
same,Complete,[2]; [8],0.855
O=c1oc2ccccc2c(O)c1Cc1c(O)c2ccccc2oc1=O [Dicoumarol],Cholesterol-free media + simvastatin (0.04 μM),[1]; [18],0.8973
same,Complete Media,[1]; [22],1.089
same,Difference,[1]; [21],0.19
same,Difference,[2]; [23],−0.93
same,Cholesterol-free,[2]; [24],2.049
same,Complete,[2]; [25],1.114
CCN(CC)CCOC(=O)C1(C2CCCCC2)CCCCC1 [Dicyclomine (hydrochloride)],Cholesterol-free media + simvastatin (0.04 μM),[1]; [18],0.9961
same,Complete Media,[1]; [22],0.9187
same,Difference,[1]; [13],−0.08
same,Cholesterol-free,[2]; [9],1.211
same,Complete,"[2]; NCI-H292 cells, complete media",0.8491
same,Difference,[2]; [10],−0.36
O=c1[nH]cnc2c1ncn2[C@H]1CC[C@@H](CO)O1 [Didanosine],Cholesterol-free media + simvastatin (0.04 μM),[1]; [18],0.9758
same,Complete Media,[1]; [22],0.8636
same,Difference,[1]; [13],−0.11
same,Difference,[2]; [6],−0.23
same,Cholesterol-free,[2]; [9],0.9969
same,Complete,"[2]; NCI-H292 cells, complete media",0.7675
C/C=C(/C(=C/C)c1ccc(O)cc1)c1ccc(O)cc1 [Dienestrol],Cholesterol-free media + simvastatin (0.04 μM),[1]; [19],0.8618
same,Complete Media,[1]; [20],0.9909
same,Difference,[1]; [21],0.13
same,Cholesterol-free,[2]; [7],0.6505
same,Complete,[2]; [8],1.078
same,Difference,[2]; [26],0.43
C[C@]12CCC3=C4CCC(=O)C=C4CC[C@H]3[C@@H]1CC[C@@]2(O)CC#N [Dienogest],Cholesterol-free media + simvastatin (0.04 μM),[1]; [14],0.9182
same,Complete Media,[1]; drug in complete media,0.7086
same,Difference,[1]; [13],−0.21
same,Cholesterol-free,[2]; [9],1.387
same,Complete,"[2]; NCI-H292 cells, complete media",1.069
same,Difference,[2]; [10],−0.32
CC/C(=C(/CC)c1ccc(O)cc1)c1ccc(O)cc1 [Diethylstilbestrol],Cholesterol-free media + simvastatin (0.04 μM),[1]; [19],0.993
same,Complete Media,[1]; [20],1.095
same,Difference,[1]; [21],0.10
same,Cholesterol-free,[2]; [7],0.5644
same,Complete,[2]; [8],0.9798
same,Difference,[2]; [26],0.42
CCN(CC)C(=O)c1cccc(C)c1 [Diethyltoluamide],Cholesterol-free media + simvastatin (0.04 μM),[1]; [14],1.302
same,Complete Media,[1]; drug in complete media,1.098
same,Difference,[1]; [13],−0.20
same,Difference,[2]; [15],−0.08
same,Cholesterol-free,[2]; [16],1.096
same,Complete,[2]; [17],1.015
CC(=O)OCC(=O)[C@@]1(OC(C)=O)[C@@H](C)C[C@H]2[C@@H]3C[C@H](F)C4=CC(=O)C=C[C@]4(C)[C@@]3(F)[C@@H](O)C[C@@]21C [Diflorasone],Cholesterol-free media + simvastatin (0.04 μM),[1]; [18],0.8775
same,Difference,[1]; [21],0.30
same,Difference,[2]; [15],−0.10
same,Cholesterol-free,[2]; [16],0.7536
same,Complete,[2]; [17],0.6518
O=C(O)c1cc(-c2ccc(F)cc2F)ccc1O [Diflunisal],Cholesterol-free media + simvastatin (0.04 μM),[1]; [3],0.785
same,Complete Media,[1]; [4],0.7827
same,Difference,[1]; [5],0.00
same,Cholesterol-free,[2]; [7],1.041
same,Complete,[2]; [8],1.674
same,Difference,[2]; [26],0.63
CCCC(=O)O[C@]1(C(=O)COC(C)=O)CC[C@H]2[C@@H]3C[C@H](F)C4=CC(=O)C=C[C@]4(C)[C@@]3(F)[C@@H](O)C[C@@]21C [Difluprednate],Cholesterol-free media + simvastatin (0.04 μM),[1]; [19],1.197
same,Complete Media,[1]; [20],1.264
same,Difference,[1]; [21],0.07
same,Difference,[2]; [6],−0.21
same,Cholesterol-free,[2]; [9],0.9273
same,Complete,"[2]; NCI-H292 cells, complete media",0.7168
C[C@H]1O[C@@H](O[C@H]2[C@@H](O)C[C@H](O[C@H]3[C@@H](O)C[C@H](O[C@H]4CC[C@@]5(C)[C@H](CC[C@@H]6[C@@H]5CC[C@]5(C)[C@@H](C7=CC(=O)OC7)CC[C@]65O)C4)O[C@@H]3C)O[C@@H]2C)C[C@H](O)[C@@H]1O [Digitoxin],Cholesterol-free media + simvastatin (0.04 μM),[1]; [3],0.01053
same,Complete Media,[1]; [4],−0.02212
same,Difference,"[1]; complete media minus cholesterol-free media + simvastatin (0.04 μM), […]",−0.03
same,Difference,"[2]; Complete minus Cholesterol-free, […]",0.04
same,Cholesterol-free,[2]; [7],−0.01931
same,Complete,[2]; [8],0.0198
C[C@H]1[C@@H](O)O[C@@H]2O[C@@]3(C)CC[C@H]4[C@H](C)CC[C@@H]1[C@@]24OO3 [Dihydroartemisinin],Cholesterol-free media + simvastatin (0.04 μM),[1]; [14],0.9193
same,Complete Media,[1]; drug in complete media,0.7262
same,Difference,[1]; [13],−0.19
same,Difference,[2]; [6],0.05
same,Cholesterol-free,[2]; [7],0.5972
same,Complete,[2]; [8],0.6489

# From patent publication US20250144067A1, “PERSONALIZED STARVATION THERAPY FOR CANCER” (Faeth Therapeutics, Inc., priority 2021, published 2025)
